In patent US8399521B2, “Methods of treating skin with aromatic skin-active ingredients” (Mary Kay Inc., priority 2008, dated 2013):

Tests used:
Assay type in all cases: biochemical
COX-2 = target: T1, COX-2 (Ovis aries, UniProt P79208); assay: Colorimetric COX (ovine) inhibitor screening assay, COX-2; settings: 0.001% test compound; for Cox-2 Inhibition (0.001%): negative = inhibition vs non-treated control; for inhibition at 0.001 %: 0.25 h
T1 construct: purchased Cayman Chemical 760111
T1 sequence (P79208 17-603): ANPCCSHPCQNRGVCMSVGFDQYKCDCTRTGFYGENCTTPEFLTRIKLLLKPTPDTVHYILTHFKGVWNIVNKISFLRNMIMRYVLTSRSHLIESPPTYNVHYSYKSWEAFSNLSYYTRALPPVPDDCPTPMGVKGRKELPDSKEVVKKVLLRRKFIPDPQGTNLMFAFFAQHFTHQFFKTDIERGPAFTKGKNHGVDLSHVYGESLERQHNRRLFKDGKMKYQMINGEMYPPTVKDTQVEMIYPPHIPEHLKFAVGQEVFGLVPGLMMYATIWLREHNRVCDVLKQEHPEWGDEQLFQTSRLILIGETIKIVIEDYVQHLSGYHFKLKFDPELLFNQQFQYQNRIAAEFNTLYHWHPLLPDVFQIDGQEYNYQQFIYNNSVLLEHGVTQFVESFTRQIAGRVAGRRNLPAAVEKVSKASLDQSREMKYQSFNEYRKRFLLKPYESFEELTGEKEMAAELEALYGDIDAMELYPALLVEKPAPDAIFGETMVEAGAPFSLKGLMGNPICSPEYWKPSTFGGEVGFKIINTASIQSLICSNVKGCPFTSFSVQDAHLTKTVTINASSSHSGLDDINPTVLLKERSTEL
From the text: (§1) Cyclooxygenase (COX) assay: An in vitro cyclooxygenase-1 and -2 (COX-1, -2) inhibition assay. […] The cyclooxygenase activity converts arachidonic acid to a hydroperoxy endoperoxide (Prostaglandin G2; PGG2) and the peroxidase component reduces the endoperoxide (Prostaglandin H2; PGH2) to the corresponding alcohol, the precursor of prostaglandins, thromboxanes, and prostacyclins. This COX Inhibitor Screening Assay measures the peroxidase component of cyclooxygenases. The peroxidase activity is assayed colorimetrically by monitoring the appearance of oxidized N,N,N′,N′-tetramethyl-p-phenylenediamine (TMPD). This inhibitor screening assay includes both COX-1 and COX-2 enzymes in order to screen isozyme-specific inhibitors.
(§2) Following manufacturer instructions for the Colormetric COX (ovine) Inhibitor screening assay (#760111, Cayman Chemical), purified cyclooxygnase enzyme (COX-1 or COX-2), heme and test compounds were mixed in assay buffer and incubated with shaking for 15 min at room temperature. Following incubation, arachidonic acid and colorimetric substrate were added to initiate the reaction and incubated for an additional 15 min at room temperature with shaking. Color progression was evaluated by fluoresecence plate reading at 590 nm. The percent inhibition of COX-1 or COX-2 activity was calculated compared to non-treated controls to determine the ability of test compounds to inhibit the activity of purified enzyme.

MMP3 = target: T2, MMP3 (Homo sapiens, UniProt P08254); assay: Matrix metalloproteinase enzyme activity assay, MMP3; settings: 0.001% test compound; negative = inhibition vs diluent control; Table 2
T2 construct: purchased BioMol International AK-400
T2 sequence (P08254 100-272 limits assumed): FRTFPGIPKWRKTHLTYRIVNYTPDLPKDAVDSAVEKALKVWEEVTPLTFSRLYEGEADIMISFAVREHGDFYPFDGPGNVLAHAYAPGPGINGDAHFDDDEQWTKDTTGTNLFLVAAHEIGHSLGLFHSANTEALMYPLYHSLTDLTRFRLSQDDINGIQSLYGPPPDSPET
From the text: (§3) Matrix metalloproteinase enzyme activity (MMP3; MMP9) assay: An in vitro matrix metalloprotease (MMP) inhibition assay. MMPs are extracellular proteases that play a role in many normal and disease states by virtue of their broad substrate specificity. MMP3 substrates include collagens, fibronectins, and laminin; while MMP9 substrates include collagen VII, fibronectins and laminin. Using Colorimetric Drug Discovery kits from BioMol International for MMP3 (AK-400) and MMP-9 (AK-410), this assay is designed to measure protease activity of MMPs using a thiopeptide as a chromogenic substrate (Ac-PLG-[2-mercapto-4-methyl-pentanoyl]-LG-OC2H5)5,6. The MMP cleavage site peptide bond is replaced by a thioester bond in the thiopeptide. Hydrolysis of this bond by an MMP produces a sulfhydryl group, which reacts with DTNB [5,5′-dithiobis(2-nitrobenzoic acid), Ellman's reagent] to form 2-nitro-5-thiobenzoic acid, which can be detected by its absorbance at 412 nm (ε=13,600 M-1 cm-1 at pH 6.0 and above 7). Data is reflected as % inhibition of the purified enzyme activity.

COX-1 = target: T3, COX-1 (Ovis aries, UniProt P05979); assay: Colorimetric COX (ovine) inhibitor screening assay, COX-1; settings: negative = inhibition vs non-treated control; for Cox-1 Inhibition (0.020%): 0.020% test compound, Table 2
T3 construct: purchased Cayman Chemical 760111
T3 sequence (P05979 25-600): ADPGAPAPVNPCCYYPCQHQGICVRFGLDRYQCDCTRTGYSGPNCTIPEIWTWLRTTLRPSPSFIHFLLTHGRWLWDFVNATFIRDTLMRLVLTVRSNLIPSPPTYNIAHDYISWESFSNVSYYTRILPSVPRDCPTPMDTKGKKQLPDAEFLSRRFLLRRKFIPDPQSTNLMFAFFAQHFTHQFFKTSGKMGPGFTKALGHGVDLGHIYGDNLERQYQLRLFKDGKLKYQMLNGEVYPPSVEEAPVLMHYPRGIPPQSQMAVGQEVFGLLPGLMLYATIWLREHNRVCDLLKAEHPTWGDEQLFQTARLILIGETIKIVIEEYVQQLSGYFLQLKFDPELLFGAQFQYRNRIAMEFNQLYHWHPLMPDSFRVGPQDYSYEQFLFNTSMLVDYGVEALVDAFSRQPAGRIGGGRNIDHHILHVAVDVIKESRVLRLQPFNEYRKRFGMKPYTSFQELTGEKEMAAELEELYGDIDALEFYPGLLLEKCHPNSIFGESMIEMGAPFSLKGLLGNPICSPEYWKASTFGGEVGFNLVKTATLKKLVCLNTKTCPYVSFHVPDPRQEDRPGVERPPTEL
From the text: as §1, §2

MMP9 = target: T4, MMP9 (Homo sapiens, UniProt P14780); assay: Matrix metalloproteinase enzyme activity assay, MMP9; settings: for MMP9 Inhibition (0.001%): 0.001% test compound, Table 2; for MMP9 Inhibition (0.001%) / MMP9 Inhibition (0.01%): negative = inhibition vs diluent control; for MMP9 Inhibition (0.01%) / inhibition at 0.01 %: 0.01% test compound, Table 3
T4 construct: purchased BioMol International AK-410
T4 sequence (P14780 107-444 limits assumed): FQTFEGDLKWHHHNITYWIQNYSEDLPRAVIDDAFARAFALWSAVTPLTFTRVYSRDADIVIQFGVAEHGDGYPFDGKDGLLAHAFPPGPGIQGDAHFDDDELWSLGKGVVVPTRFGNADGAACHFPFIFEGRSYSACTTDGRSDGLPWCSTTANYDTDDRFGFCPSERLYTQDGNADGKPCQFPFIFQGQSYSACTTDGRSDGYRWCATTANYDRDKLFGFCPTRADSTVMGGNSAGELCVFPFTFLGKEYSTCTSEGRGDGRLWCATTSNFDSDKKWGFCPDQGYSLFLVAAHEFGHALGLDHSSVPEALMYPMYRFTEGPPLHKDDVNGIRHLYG
From the text: as §3

15-lipoxygenase = target: T5, 15-lipoxygenase (Glycine max, UniProt P08170); assay: Lipoxygenase (LO) inhibition assay; settings: 0.1% test compound; negative = inhibition vs non-treated control; Table 2
T5 construct: purchased Cayman Chemical 760700
T5 sequence (P08170 1-839): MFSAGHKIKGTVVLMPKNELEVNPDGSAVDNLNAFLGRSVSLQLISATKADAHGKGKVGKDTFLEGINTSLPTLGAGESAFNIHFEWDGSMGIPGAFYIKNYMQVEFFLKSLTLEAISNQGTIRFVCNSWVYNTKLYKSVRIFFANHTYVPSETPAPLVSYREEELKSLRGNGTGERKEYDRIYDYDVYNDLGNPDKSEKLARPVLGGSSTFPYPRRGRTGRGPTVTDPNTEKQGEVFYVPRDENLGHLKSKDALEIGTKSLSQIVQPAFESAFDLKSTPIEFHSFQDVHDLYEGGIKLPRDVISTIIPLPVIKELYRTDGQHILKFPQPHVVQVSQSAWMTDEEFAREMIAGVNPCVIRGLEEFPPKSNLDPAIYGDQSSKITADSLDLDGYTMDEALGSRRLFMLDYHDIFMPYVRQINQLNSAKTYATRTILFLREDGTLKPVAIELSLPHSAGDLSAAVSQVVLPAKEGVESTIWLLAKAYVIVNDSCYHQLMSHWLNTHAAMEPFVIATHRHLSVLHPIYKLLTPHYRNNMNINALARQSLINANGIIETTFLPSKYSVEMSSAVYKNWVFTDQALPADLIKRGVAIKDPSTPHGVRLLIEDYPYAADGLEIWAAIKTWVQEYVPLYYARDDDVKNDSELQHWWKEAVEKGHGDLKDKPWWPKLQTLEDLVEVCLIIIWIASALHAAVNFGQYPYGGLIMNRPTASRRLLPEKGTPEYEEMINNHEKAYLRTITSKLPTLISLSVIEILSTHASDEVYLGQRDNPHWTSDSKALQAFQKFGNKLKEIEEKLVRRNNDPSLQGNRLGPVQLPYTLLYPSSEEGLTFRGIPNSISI
Experimental: Lipoxygenase (LO) assay: An in vitro lipoxygenase (LO) inhibition assay. LOs are non-heme iron-containing dioxygenases that catalyze the addition of molecular oxygen to fatty acids. Linoleate and arachidonate are the main substrates for LOs in plants and animals. […] This assay provides an accurate and convenient method for screening lipoxygenase inhibitors by measuring the hydroperoxides generated from the incubation of a lipoxygenase (5-, 12-, or 15-LO) with arachidonic acid.
Following incubation, arachidonic acid was added to initiate the reaction and mixtures incubated for an additional 10 min at room temperature. Colorimetric substrate was added to terminate catalysis and color progression was evaluated by fluorescence plate reading at 490 nm. The percent inhibition of lipoxyganse activity was calculated compared to non-treated controls to determine the ability of test compounds to inhibit the activity of purified enzyme.

Molecule: 1-(1,2,3,4,5,6,7,8-octahydro-2,3,8,8-tetramethyl-2-naphthalenyl)ethan-1-one; 1-(2,3,8,8-tetramethyl-1,2,3,5,6,7,8,8a-octahydronaphthalen-2-yl)ethanone; and 1-(2,3,8,8-tetramethyl-1,2,3,4,6,7,8,8a-octahydronaphthalen-2-yl)ethanone [Iso E super]
- Cox-2 Inhibition (0.001%) (COX-2; Table 3): −20.80%

Molecule: 2,6-nonadien-1-al (trans, trans; trans, cis)
- Cox-2 Inhibition (0.001%) (COX-2; Table 2): −17.58%
- MMP3 Inhibition (0.001%) (MMP3): −20.34%
- Cox-1 Inhibition (0.020%) (COX-1): −11.42%
- MMP9 Inhibition (0.001%) (MMP9): −32.53%
- LO Inhibition (0.1%) (15-lipoxygenase): −45.58%

Molecule: 3-hexen-1-ol (E) and (Z)
- Cox-2 Inhibition (0.001%) (COX-2; Table 3): −23.56%
- MMP9 Inhibition (0.01%) (MMP9): −23.82%

Molecule: 3a,4,5,6,7,7a-hexahydro-4,7-methano-1h-inden-5(or 6)-yl acetate [Cyclacet]
- LO Inhibition (0.1%) (15-lipoxygenase): −26.37%

Molecule: CCCC/C=C/C=C/C=O [2,4-nonadien-1-al]
- inhibition at 0.001 % (COX-2; Table 2): 21.1%
- MMP3 Inhibition (0.001%) (MMP3): −23.75%
- MMP9 Inhibition (0.001%) (MMP9): −19.87%

Molecule: CCCCCCCCC/C=C/C=O [2-dodecenal (E)]
- MMP9 Inhibition (0.001%) (MMP9): −24.98%

Molecule: CC/C=C(\C)C(O)CCCCC (stereo not drawn) [4-methyl-3-decen-5-ol]
- inhibition at 0.01 % (MMP9): 28.1%

Molecule: CCCCCCCCCCCC=O [Aldehyde C-12 Lauric, 1-dodecanal]
- MMP9 Inhibition (0.001%) (MMP9): −27.64%

Molecule: CCCCCC1CCC(=O)O1 (stereo not drawn) [Aldehyde C-18, 5-pentyldihydrofuran-2(3H)-one]
- inhibition at 0.001 % (COX-2; Table 3): 22.6%
- inhibition at 0.01 % (MMP9): 22.2%

Molecule: CC(=O)/C=C/C1=C(C)CCCC1(C)C [Beta Ionone, (3E)-4-(2,6,6-trimethylcyclohex-1-en-1-yl)but-3-en-2-one]
- MMP9 Inhibition (0.001%) (MMP9): −19.82%

Molecule: CC/C=C\CCCCC=O [Cis-6-Nonenal, cis-6-nonenal]
- inhibition at 0.001 % (COX-2; Table 3): 27.1%
- inhibition at 0.01 % (MMP9): 19.2%

Molecule: CC(=O)OCCC(C)CCC=C(C)C (stereo not drawn) [Citronellyl Acetate, 3,7-dimethyl-6-octen-1-yl acetate]
- inhibition at 0.001 % (COX-2; Table 4): 20.9%
- Cox-1 Inhibition (0.001%) (COX-1; 0.001% test compound, Table 4): −27.99%

Molecule: O=C1CCCCCCCCCCCC(=O)OCCO1 [Ethylene Brassylate, 1,4-dioxacycloheptadecane-5,17-dione]
- inhibition at 0.001 % (COX-2; Table 3): 20.6%
- inhibition at 0.01 % (MMP9): 33%

Molecule: CCOC(=O)C1C2C=CC(C2)C1C(C)C (stereo not drawn) [Herbanante, ethyl 3-isopropylbicyclo[2.2.1]hept-5-ene-2-carboxylate]
- inhibition at 0.001 % (COX-2; Table 3): 25.1%
- inhibition at 0.01 % (MMP9): 26.8%

Molecule: CCC/C=C\COC(C)=O [Leaf Acetate, cis-2-hexenyl acetate]
- inhibition at 0.01 % (MMP9): 22%

Molecule: CC(C)=CCCC(C)C=O (stereo not drawn) [Melanol, 2,6-dimethyl-5-heptenal]
- LO Inhibition (0.1%) (15-lipoxygenase): −20.45%

Molecule: CC1=CCC(/C=C/C(C)(C)C(C)O)C1(C)C (stereo not drawn) [Polysantol, 3,3-dimethyl-5(2,2,3-trimethyl-3-cyclopenten-1-yl)-4-penten-2-ol]
- inhibition at 0.001 % (COX-2; Table 3): 36.1%

Molecule: CC(C)=CCCC1=CCCC(C)(C=O)C1 (stereo not drawn) [Precyclemone B, 1-methyl-3-(4-methylpent-3-enyl)cyclohex-3-enecarbaldehyde]
- MMP3 Inhibition (0.001%) (MMP3): −25.09%

Molecule: C=C1CCCC(C)(C)C1C(=O)OC (stereo not drawn) [Romascone ®, methyl 2,2-dimethyl-6-methylenecyclohexanecarboxylate]
- inhibition at 0.001 % (COX-2; Table 3): 23.3%

Molecule: CCC/C(CC(=O)CC)=N/O [Stemone, (Z)-5-(hydroxyimino)octan-3-one]
- inhibition at 0.001 % (COX-2; Table 3): 22.3%

Molecule: CC(=O)OC1CCC(C(C)(C)C)CC1 (stereo not drawn) [Vertenex ® H.C., 4-tert-butylcyclohexyl acetate]
- Cox-1 Inhibition (0.020%) (COX-1): −18.50%
- LO Inhibition (0.1%) (15-lipoxygenase): −37.86%

Molecule: (2,4,6-)trimethyl-3-cyclohexene-1-carboxaldehyde and (3,5,6-)trimethyl-3-cyclohexene-1-carboxaldehyde [Iso Cyclo Citral]
- Cox-2 Inhibition (0.001%) (COX-2; Table 3): −31.58%
- MMP9 Inhibition (0.01%) (MMP9): −21.78%
